Measurements reported in ChEMBL document CHEMBL1201862, “PubChem BioAssay data set” (2004).
Activity calls are given as the source filed them.

How the values were obtained:
[1] = system: BJ; assay: cytotoxicity toward BJ-TERT-LT-ST fibroblasts, dose response, cell-based, RAS-independent, luminescence (AID 1935); format: functional; settings: Homo sapiens;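 note: BJ fibroblasts immortalized with TERT plus LT and ST oncogenes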
[2] = target: T1, Streptokinase A (Streptococcus pyogenes serotype M1, UniProt P10520); assay: S. pyogenes streptokinase expression inhibitors, potency, dose response, plasminogen activation absorbance, OD405 (AID 1914); format: functional, Streptococcus pyogenes M1 GAS;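 note: secreted streptokinase activity via plasminogen activation per viability signal from cell pellet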
T1 sequence (P10520 whole entry): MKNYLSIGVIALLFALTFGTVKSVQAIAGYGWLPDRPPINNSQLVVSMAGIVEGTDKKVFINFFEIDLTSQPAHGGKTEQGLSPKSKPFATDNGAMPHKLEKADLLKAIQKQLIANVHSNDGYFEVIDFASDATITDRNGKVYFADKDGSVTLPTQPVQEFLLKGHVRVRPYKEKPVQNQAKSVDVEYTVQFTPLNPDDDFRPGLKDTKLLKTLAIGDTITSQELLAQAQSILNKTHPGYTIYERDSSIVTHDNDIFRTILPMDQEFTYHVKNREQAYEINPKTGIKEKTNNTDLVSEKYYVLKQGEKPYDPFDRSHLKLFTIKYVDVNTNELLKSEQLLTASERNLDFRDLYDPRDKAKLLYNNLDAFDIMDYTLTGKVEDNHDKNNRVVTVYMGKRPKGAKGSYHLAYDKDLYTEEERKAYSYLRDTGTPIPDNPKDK

[3] = Counterscreen for AddAB inhibitors: absorbance-based bacterial cell-based high throughput dose response assay for inhibitors of bacterial viability. [Related pubchem assays (depositor defined):AID435030, AID449728, AID449731, AID488942, AID488955, AID488956]; format: functional
[4] = target: T2, Cytochrome P450 1A2 (Homo sapiens, UniProt P05177);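 note: PubChem cytochrome P450 panel assay, CYP1A2 panel member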
T2 sequence (P05177 whole entry): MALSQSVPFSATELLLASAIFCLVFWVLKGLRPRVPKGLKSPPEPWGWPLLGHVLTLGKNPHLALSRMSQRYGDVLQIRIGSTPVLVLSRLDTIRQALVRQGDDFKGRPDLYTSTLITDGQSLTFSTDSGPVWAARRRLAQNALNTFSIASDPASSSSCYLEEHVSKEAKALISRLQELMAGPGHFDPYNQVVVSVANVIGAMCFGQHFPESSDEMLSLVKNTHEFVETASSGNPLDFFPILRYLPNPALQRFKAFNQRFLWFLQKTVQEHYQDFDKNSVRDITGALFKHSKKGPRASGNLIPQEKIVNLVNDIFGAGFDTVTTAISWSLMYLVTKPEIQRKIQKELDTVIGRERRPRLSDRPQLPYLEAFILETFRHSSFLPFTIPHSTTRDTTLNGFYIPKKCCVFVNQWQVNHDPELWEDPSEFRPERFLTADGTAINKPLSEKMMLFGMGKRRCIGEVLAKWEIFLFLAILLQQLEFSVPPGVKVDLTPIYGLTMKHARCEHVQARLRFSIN

[5] = target: Bcl-2-like protein 10 (Homo sapiens, UniProt Q9HD36); assay: displacers of TR3 peptide from Bcl-B, primary screen, selectivity assay for Bfl-1 inhibitor project, biochemical, fluorescence polarization, FITC-TR3 peptide (AID 748);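 note: fluorescence polarization from a fluorescein-labelled TR3 peptide binding purified Bcl-B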
[6] = target: Cytochrome P450 2C19 (Homo sapiens, UniProt P33261); assay: Cytochrome panel assay with activity outcomes. Panel member name: p450-cyp2c19 Compounds with AC50 equal or less than 10 uM are considered active; format: functional; settings: read-out: AC50
[7] = system: BJ; assay: cells; format: functional, cell-based; settings: Homo sapiens
[8] = system: BJ; assay: cytotoxicity toward BJ-TERT fibroblasts, dose response, cell-based, RAS-independent, luminescence (AID 1933); format: functional; settings: Homo sapiens
[9] = target: Cytochrome P450 3A4 (Homo sapiens, UniProt P08684);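 note: CYP3A4 tested as one member of a cytochrome P450 panel screen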
[10] = target: Exodeoxyribonuclease V (Escherichia coli (strain K12), UniProt P04993+P07648+P08394); assay: E. coli RecBCD inhibitors, dose response, counter-screen for AddAB inhibitor project, absorbance, V66 E. coli, mutant T4 phage (AID 492957); format: functional, cell-based, Escherichia coli str. K-12 substr. MG1655
[11] = system: Streptococcus; assay: Group A Streptococcus viability loss, dose response, counter-screen for streptokinase expression inhibitor project, luminescence, BacTiterGlo (AID 1915); format: functional, organism-based;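 note: potency for reduction of bacterial viability or growth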
[12] = target: Sphingosine 1-phosphate receptor 2 (Homo sapiens, UniProt O95136); assay: Dose Response Cell Based Assay for Antagonists of the S1P2 Receptor. [Related pubchem assays: 856, 736 ]; format: functional
[13] = cytotoxicity toward DRD oncogenic fibroblasts, dose response, cell-based, non-viral oncogenic, luminescence (AID 1934); format: functional; settings: Homo sapiens
[14] = system: INS1; assay: beta cell apoptosis inhibitors, cytokine rescue, dose response, luminescence, retest (AID 449756); format: functional, cell-based; settings: Rattus norvegicus;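 note: cell death triggered by IL-1 beta plus TNF-alpha plus IFN-gamma mixture; protective hits raise ATP signal compared with cytokine alone wells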
[15] = system: Streptococcus sp. 'group A'; assay: growth inhibition of control SK(-) GAS strain, dose response, counter-screen for streptokinase expression inhibitor project, luminescence, kanamycin, BacTiterGlo, confirmation (AID 1900); format: functional, organism-based
[16] = target: Ras and Rab interactor 1/Tyrosine-protein kinase ABL1 (Homo sapiens, UniProt P00519+Q13671); format: functional;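 note: biochemical TR-FRET dose-response test measuring inhibition of binding between Rin1 and Abl proteins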
[17] = target: Lysine-specific demethylase 4A (Homo sapiens, UniProt O75164); assay: JMJD2A histone demethylase inhibitors, dose response, selectivity assay for GASC-1 inhibitor project, biochemical, DELFIA europium, cherry-picked samples (AID 488840)
Sequence of Lysine-specific demethylase 4A (O75164 whole entry): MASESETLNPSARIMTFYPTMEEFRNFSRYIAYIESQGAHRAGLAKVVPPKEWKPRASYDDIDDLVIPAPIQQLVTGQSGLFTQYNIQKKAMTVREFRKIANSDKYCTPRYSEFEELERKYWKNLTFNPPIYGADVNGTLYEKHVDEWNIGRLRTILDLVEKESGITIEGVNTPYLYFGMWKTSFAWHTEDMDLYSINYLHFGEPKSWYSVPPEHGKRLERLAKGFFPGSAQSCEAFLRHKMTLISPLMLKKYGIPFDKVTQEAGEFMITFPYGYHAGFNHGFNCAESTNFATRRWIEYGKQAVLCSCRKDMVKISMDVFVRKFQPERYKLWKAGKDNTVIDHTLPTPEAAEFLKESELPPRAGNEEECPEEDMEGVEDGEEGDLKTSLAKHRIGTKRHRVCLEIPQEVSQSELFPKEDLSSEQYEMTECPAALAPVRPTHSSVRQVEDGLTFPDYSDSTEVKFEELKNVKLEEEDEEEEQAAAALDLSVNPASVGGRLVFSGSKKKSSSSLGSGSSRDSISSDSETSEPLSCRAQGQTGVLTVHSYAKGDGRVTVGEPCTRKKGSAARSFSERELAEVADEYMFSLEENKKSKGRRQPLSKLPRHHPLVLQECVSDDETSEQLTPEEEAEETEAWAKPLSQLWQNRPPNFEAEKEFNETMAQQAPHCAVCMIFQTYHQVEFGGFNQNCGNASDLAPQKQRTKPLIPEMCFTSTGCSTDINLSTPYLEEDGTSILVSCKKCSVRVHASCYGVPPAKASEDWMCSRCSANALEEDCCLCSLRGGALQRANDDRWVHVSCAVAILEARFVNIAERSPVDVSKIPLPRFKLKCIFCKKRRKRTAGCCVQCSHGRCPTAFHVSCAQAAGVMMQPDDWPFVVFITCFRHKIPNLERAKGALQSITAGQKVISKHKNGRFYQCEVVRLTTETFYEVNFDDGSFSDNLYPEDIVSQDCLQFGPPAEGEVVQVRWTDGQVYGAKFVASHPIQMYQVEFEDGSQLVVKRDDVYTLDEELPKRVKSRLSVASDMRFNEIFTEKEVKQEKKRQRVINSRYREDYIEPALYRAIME

Sequence of Bcl-2-like protein 10 (Q9HD36 whole entry): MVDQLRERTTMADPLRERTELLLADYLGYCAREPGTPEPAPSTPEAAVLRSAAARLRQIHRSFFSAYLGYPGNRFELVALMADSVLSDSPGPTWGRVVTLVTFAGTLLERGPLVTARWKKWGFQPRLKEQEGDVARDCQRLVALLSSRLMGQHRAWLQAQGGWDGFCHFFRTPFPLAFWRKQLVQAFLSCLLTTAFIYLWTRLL
Sequence of Cytochrome P450 2C19 (P33261 whole entry): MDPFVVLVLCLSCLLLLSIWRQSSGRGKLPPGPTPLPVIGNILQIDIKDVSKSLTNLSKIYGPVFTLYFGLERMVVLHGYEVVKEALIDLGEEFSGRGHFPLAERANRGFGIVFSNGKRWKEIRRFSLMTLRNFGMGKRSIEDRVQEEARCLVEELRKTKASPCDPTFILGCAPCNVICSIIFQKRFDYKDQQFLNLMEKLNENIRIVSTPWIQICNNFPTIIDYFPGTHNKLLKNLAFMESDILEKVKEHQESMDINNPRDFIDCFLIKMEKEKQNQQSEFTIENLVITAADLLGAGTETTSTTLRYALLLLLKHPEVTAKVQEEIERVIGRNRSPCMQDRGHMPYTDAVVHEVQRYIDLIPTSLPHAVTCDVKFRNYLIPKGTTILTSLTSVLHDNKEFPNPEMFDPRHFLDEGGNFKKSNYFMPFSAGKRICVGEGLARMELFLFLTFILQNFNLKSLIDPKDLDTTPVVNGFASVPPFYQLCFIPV
Sequence of Exodeoxyribonuclease V (P04993 whole entry): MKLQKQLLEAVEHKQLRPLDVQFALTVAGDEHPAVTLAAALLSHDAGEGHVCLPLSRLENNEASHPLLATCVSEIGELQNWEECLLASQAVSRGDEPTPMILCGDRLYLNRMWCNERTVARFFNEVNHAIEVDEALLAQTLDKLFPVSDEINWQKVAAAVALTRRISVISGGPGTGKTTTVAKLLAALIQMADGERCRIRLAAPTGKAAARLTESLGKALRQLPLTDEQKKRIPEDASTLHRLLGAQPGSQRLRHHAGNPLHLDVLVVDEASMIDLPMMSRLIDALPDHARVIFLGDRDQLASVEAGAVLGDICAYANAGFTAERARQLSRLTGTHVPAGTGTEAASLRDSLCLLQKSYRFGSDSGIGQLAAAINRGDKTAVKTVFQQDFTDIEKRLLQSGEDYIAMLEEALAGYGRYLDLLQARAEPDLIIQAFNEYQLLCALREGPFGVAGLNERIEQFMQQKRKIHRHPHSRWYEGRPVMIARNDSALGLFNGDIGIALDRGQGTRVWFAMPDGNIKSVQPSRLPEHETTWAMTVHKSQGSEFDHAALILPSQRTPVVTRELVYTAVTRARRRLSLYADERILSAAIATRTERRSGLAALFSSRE
Sequence of Exodeoxyribonuclease V (P07648 whole entry): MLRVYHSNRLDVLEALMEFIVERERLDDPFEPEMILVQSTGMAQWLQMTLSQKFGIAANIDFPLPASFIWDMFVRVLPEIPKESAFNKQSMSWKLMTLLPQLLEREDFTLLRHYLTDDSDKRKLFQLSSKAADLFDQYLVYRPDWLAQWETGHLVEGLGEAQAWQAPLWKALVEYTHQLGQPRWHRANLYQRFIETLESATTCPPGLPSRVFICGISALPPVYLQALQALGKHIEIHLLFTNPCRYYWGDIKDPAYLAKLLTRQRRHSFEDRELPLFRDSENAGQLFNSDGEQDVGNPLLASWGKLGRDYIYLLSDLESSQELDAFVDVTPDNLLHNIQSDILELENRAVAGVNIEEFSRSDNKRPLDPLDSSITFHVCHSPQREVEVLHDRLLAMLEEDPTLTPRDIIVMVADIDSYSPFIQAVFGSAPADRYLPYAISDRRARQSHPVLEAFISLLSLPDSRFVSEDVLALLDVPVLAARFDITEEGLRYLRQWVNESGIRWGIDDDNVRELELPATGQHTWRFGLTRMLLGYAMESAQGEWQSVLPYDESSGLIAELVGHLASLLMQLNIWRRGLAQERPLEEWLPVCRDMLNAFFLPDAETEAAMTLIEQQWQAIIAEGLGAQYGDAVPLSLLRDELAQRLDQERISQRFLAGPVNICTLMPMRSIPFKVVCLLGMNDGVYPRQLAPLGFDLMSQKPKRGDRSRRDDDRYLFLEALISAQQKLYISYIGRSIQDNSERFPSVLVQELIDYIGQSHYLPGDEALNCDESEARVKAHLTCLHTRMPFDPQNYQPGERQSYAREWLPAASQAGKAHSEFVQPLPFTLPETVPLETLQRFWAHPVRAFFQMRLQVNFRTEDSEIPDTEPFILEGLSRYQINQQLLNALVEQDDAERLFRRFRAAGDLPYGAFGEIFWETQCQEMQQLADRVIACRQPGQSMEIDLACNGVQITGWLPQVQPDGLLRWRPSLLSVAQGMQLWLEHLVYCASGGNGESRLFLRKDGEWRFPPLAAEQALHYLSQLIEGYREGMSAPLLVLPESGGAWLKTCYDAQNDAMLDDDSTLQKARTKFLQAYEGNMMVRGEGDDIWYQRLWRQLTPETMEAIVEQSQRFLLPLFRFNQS
Sequence of Exodeoxyribonuclease V (P08394 whole entry): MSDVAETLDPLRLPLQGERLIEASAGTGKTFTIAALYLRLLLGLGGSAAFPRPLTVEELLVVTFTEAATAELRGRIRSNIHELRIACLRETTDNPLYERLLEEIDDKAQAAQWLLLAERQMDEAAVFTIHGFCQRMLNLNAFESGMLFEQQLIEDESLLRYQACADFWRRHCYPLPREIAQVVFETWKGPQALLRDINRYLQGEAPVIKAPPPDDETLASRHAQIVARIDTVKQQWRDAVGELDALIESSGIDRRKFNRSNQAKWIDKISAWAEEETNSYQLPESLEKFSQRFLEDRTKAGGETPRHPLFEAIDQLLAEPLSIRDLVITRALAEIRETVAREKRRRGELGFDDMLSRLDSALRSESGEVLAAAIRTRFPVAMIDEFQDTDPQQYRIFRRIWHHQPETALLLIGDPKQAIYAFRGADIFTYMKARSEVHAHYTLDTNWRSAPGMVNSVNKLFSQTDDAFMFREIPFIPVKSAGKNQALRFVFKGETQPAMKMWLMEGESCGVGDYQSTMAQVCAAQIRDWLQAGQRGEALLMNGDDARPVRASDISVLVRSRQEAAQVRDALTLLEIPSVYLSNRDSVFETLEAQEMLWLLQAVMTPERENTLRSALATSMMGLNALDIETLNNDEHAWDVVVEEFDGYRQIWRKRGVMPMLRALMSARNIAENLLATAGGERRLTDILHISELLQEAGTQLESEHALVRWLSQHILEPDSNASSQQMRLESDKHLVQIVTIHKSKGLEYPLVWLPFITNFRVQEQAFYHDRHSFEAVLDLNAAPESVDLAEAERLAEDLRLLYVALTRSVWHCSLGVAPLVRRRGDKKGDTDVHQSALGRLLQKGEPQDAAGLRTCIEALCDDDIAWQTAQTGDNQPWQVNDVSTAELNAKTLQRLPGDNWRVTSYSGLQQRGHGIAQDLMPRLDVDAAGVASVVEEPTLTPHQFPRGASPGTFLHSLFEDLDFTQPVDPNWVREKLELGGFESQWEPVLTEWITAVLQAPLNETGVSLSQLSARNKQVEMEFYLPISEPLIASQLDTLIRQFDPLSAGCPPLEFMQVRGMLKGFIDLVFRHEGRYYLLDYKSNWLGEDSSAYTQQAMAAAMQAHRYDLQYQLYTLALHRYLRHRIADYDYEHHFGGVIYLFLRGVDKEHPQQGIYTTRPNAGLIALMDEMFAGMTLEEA
Sequence of Sphingosine 1-phosphate receptor 2 (O95136 whole entry): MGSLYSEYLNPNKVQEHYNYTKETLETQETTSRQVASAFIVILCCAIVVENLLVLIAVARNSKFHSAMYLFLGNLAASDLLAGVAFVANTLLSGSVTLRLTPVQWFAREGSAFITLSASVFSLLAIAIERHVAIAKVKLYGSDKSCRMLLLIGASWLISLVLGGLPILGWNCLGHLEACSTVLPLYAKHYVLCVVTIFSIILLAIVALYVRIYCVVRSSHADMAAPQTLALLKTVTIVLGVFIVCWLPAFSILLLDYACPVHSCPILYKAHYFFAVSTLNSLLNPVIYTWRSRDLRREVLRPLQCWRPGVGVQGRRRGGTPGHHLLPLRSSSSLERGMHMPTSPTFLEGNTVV

SMILES | EC50 [1] | EC50 [2] | IC50 [3] | AC50 [4] | IC50 [5] | AC50 [6] | EC50 [7] | EC50 [8] | AC50 [9] | IC50 [10] | EC50 [11] | IC50 [12] | EC50 [13] | AC50 [14] | EC50 [15] | IC50 [16] | AC50 [17]
Cc1ccc(-[n+]2c(-c3ccc(Br)cc3)cn3c2CCc2ccc4cccnc4c2-3)cc1 | 2.98 µM (inconclusive) | 6.5 µM (active) | 16.9 µM (inactive) | 25.1 µM (inconclusive) | 41.4 µM (active) | 28.2 µM (inconclusive) | 1.69 µM (inconclusive) | 0.649 µM (inconclusive) | 4.47 µM (inconclusive) | 28.4 µM (inactive) | > 50 µM (not active) | 4.28 µM (active) | 3.51 µM (active) | 0.412 µM (active) | 6.51 µM (active) |  | 
CN(C(=O)c1ccc(NC(=O)Cc2ccc(NC(=O)C3CCN(C(=O)C4CC4)CC3)cc2)cc1)C1CC1 |  |  |  |  |  |  |  |  |  |  |  |  |  |  |  | 9.39 µM (active) | 17.8 µM (active)
